Several values for one entry are separate records, joined by “and”; a condition that tells them apart may be missing. Equal values may be shown once.
Experiments:
histamine-induced itch [1] = assay: Histamine-induced itch, topically applied Aqueous Cream BP, histamine iontophoresis, VAS; settings: for Itch score (area under the curve): volar forearm skin, after 4 hours, VAS area under curve 0 to 5 minutes; for Itch score % of control: control = vehicle alone
histamine-induced itch [2] = assay: Histamine-induced itch, test material topically applied in ethanol:Vaseline Intensive Care Lotion 1:1; type: in vivo, human; settings: for Itch score % of control: 50 mM in ethanol mixed 1:1 with VICL, control = ethanol:VICL vehicle alone of the same run; for Effect on histamine-induced itch (in words): topically applied in the presence of a lotion
histamine-induced itch [3] = assay: Histamine-induced itch, test material applied under water-impermeable patch for 24 hours before histamine challenge; settings: applied by patch
[4] = HU-210 0.05% (w/v) in Aqueous Cream BP
[5] = HU-210 0.5% (w/v) in Aqueous Cream BP

CCCCCCC(C)(C)c1cc(O)c2c(c1)OC(C)(C)[C@@H]1CC=C(CO)C[C@@H]21 [HU-210, (6aR)-trans-3-(1,1-Dimethylheptyl)-6a,7,10,10a-tetrahydro-1-hydroxy-6,6-dimethyl-6H-dibenzo[b,d]pyran-9-methanol]
Itch score (area under the curve) (histamine-induced itch [1]; [4]): 101 | Itch score % of control (histamine-induced itch [1]; [4]): 7.3% | Itch score (area under the curve) (histamine-induced itch [1]; [5]): 119 | Itch score % of control (histamine-induced itch [1]; [5]): 6.2% | Effect on histamine-induced itch (in words) (histamine-induced itch [1]; topically applied in cream): capable of reducing histamine-induced itch

CCCCC/C=C\C/C=C\CCCCCCCC(=O)NCCO [LAMEA, linoleoylethanolamine]
Itch score % of control (histamine-induced itch [2]): 169% and 108% and 100% | Effect on histamine-induced itch (in words) (histamine-induced itch [2]): unable to demonstrate any anti-pruritic action or even appeared to exacerbate the itch response

CCCCCCCCCCCCCCCC(=O)NCCO [PEA, Palmitoylethanolamide]
Effect on histamine-induced itch (in words) (histamine-induced itch [2]): can inhibit histamine-induced itch | Effect on histamine-induced itch (in words) (histamine-induced itch [3]): can inhibit histamine-induced itch

CCCCCCCCCCCCCCCCCC(=O)NCCO [SEA]
Itch score % of control (histamine-induced itch [2]): 231% and 260% and 190% | Effect on histamine-induced itch (in words) (histamine-induced itch [2]): unable to demonstrate any anti-pruritic action or even appeared to exacerbate the itch response

Source: US20100029778A1, “HAIR AND/OR SCALP TREATMENT COMPOSITIONS” (Unilever Home & Personal Care USA, Division of Conopco, Inc., priority 2001, published 2010)
